Assay results taken from patent US4578376A, “Pharmaceutical compositions for the treatment of osteopathias” (Istituto Gentili S.p.A., priority 1981, dated 1986).
“Also recorded” adds a separate entry of the source. Where a name gives a salt, the structure may show the parent alone. Read-outs that look alike come from different tables or passages of the source.

Experiments:
[1] = solutions, very low concentrations; cited from earlier work
[2] = oral route or systemic route; cited from earlier work
calvaria cells = assay: cells; type: cell-based, Wistar rats
Description: Cellular culture; the cells are first cultured in accordance with the method reported by Fast, et al., (Biochemical Journal, 172, 97-107 (1978). In short, calvaria removed from Wistar rats one day old has been digested with collagenase. The freed cells have been placed on plates in a concentration of […] per ml of medium in Petri dishes of 3.5 cm diameter containing 1.5 ml of medium in dishes of 1.6 cm diameter containing 0.5 ml of medium. The cells have been cultivated in the essential minimum medium containing 10% of fetal calf serum in an atmophere of 5% CO2 at 37° C. up to the seventh or eighth day. The diphosphonates have been added on the first day up to the end of the experiment.
The cells have been counted with a Coulter counter after having been freed from the dishes by digestion with a mixture of collagenase and trypsin. On the seventh day, the mixture has been changed and the cells have been incubated for sixteen hours. The so obtained lactate during this period has been measured according to the method of Fast, et al.

[3] = Toxicity (DL50) in Swiss mice; type: in vivo, both male and female; settings: mouse, in vivo, Swiss mice male and female
Source text: (§1) In vivo, the degree of toxicity of AHEDP has been determined in Swiss mice, both male and female by various routes of administration and by comparison with some of the best known and used diphosphonates.

[4] = no APD clinical test described in the patent; cited from earlier work
bone reabsorption = assay: Bone reabsorption and in vivo calcification (mineral density in the tibia metaphysis, body weight); parameters: species or system Wistar rats
Description: Groups of five Wistar rats of weight between 180 and 200 grams have been treated for seven days with 0.01, 0.1, 1.0 and 10 mg P/kg of AHEDP or with a physiological solution by the subcutaneous route. The animals have been fed with Altromine 1314 containing 1.1 gram per 100 grams of calcium, 1.2 grams per 100 grams P and 250 IU per 100 grams of Vitamin D3. On the eighth day, the animals were killed and the tibia bones are removed and fixed in 50% ethanol. The tibia bones were then prepared for the histological examination and sections of 70-80μ thickness have been prepared for the microradiological study. This procedure has permitted an estimate of the mineral density in the metaphysis (Schenk, et al. Calc. Tiss. Res. 11, 196-214, 1973).

Swiss mice = assay: Toxicity (DL50) in Swiss mice; type: in vivo, both male and female
Source text: as §1

[5] = tested on: demineralizing osteopathias, characterized by a high rate of bone reabsorption; assay: Clinical study: metabolism of phosphorus and calcium, indexes of bone reabsorption; type: in vivo
Source text: In view of the favorable pharmacological and toxicological results, the substance, AHEDP, has been tested clinically. The study deals with the effects on the metabolism of phosphorus and calcium of the new diphosphonate according to the present invention used in the treatment of demineralizing osteopathias, characterized by a high rate of bone reabsorption.
(§2) Six individuals affected by the bone disease called Paget's condition, that is three men and three women of age between 52 and 68; three individuals affected by metastatic osteolysis, resulting from mammary carcinoma, that is three women between age 42 and 59 years old.
(§3) In eight cases, that is five individuals affected by Paget's disease and three individuals affected by osteolysis, the treatment has been carried out for fifteen days (in one of the cases of the individuals affected by Paget's disease, treatment continued for an additional fifteen days of therapy with a higher dosage); in the ninth case of the individual affected by Paget's disease, the treatment was continued for thirty days.
(§4) The first four cases, that is two individuals affected by Paget's disease and two individuals affected by osteolysis, have received dosage of AHEDP of 5 mg daily by the intravenous route (slow infusion); in the fifth case, the individual affected by Paget's disease, received a dose of 10 mg daily for fifteen days and then 20 mg daily for an additional period of fifteen days. Three other cases, that is two individuals affected by Paget's disease and one individual affected by osteolysis have been administered doses of 20 mg daily for fifteen days. The ninth individual affected by Paget's disease, has been treated with doses of 40 mg daily for 30 days.
(§5) Several parameters have been studied prior to the treatment, during the treatment and at the end of the treatment with respect to the metabolism of phosphorus and calcium and the tolerability of the substance.
calcemia, phosphatemia, alkaline phosphatasemia, plasmatic PGE2, plasmatic iPTH, calciuria, phosphaturia, hydroxyprolinuria, cyclic nephrogenic AMP.

[6] = Clinical study: tolerability; type: in vivo
Source text: as §2, §3, §4, §5
Hemochromocytometric examination, proteinemia, glycemia, azotemia, creatininemia, transaminasemia, immunoglobulin.

Solubility = type: physicochemical
Toxicity (DL50) in rats = settings: rat, in vivo, iv; I.v., rats (footnote *)
[7] = Rattus norvegicus, read-out: No. of Cells, % of control ± E.S.

Question: What does the source list for `O=P(O)(O)OP(=O)(O)O` [pyrophosphate]?
Answer: precipitation of calcium phosphate [1]: capable of inhibiting the precipitation of calcium phosphate; hydrolysis on administration [2]: rapid hydrolysis

Question: Which activity at 2.5 µM (calvaria cells; [7]) does the source give for `NCCC(O)(P(=O)([O-])O)P(=O)([O-])O.[Na+].[Na+]` [APD, 3-Amino-1-hydroxypropane-1,1-diphosphonic acid disodium salt] here?
Answer: 90.8 ± 2.1%

Question: And the activity at 25 µM (calvaria cells; [7])?
Answer: 64.9 ± 4.1%

Question: And the activity at 250 µM (calvaria cells; [7])?
Answer: 0%

Question: And the LD50 ([3]; ip, I.p.)?
Answer: 190 mg/kg

Question: And the LD50 ([3]; iv, I.v.)?
Answer: 45 mg/kg

Question: And the LD50 ([3]; po, OS (orally))?
Answer: 625 mg/kg

Question: What about the “alterations in body temperature and hematic crasia (comparison analog)” value [4] of the same compound?
Answer: causes substantial alterations in the parameters discussed hereinabove

Question: For `O=P([O-])([O-])C(Cl)(Cl)P(=O)(O)O.[Na+].[Na+]` [Cl2 MDP, Dichloromethylenediphosphonic acid disodium salt], which LD50 ([3]; ip, I.p.) is on record?
Answer: 780 mg/kg

Question: What about the LD50 ([3]; iv, I.v.) of the same compound?
Answer: 75 mg/kg

Question: What about the LD50 ([3]; po, OS (orally)) of the same compound?
Answer: > 2000 mg/kg

Question: Which “effect on the number of cells (in words)” value (calvaria cells; 250 μM) does the source give for `NCCCCCC(O)(P(=O)(O)O)P(=O)(O)O` [AHEDP, 6-amino-1-hydroxyhexane-1,1-diphosphonic acid] here?
Answer: some reductions, although slightly in the number of cells

Question: What about the “effect on the production of the lactate (in words)” value (calvaria cells; 250 μM) of the same compound?
Answer: increase in the production of the lactate

Question: And the activity at 0.25 µM (calvaria cells; Rattus norvegicus, 0.25 μM, read-out: No. of Cells, % of control ± E.S.)?
Answer: 96.6 ± 1.7%

Question: What about the activity at 2.5 µM (calvaria cells; Rattus norvegicus, 2.5 μM, * = significance with respect to the control (APD), read-out: No. of Cells, % of control ± E.S.) of the same compound?
Answer: 95.7 ± 7.8%

Question: What about the activity at 25 µM (calvaria cells; Rattus norvegicus, 25 μM, * = significance with respect to the control (APD), read-out: No. of Cells, % of control ± E.S.) of the same compound?
Answer: 104 ± 2.1%

Question: What about the activity at 250 µM (calvaria cells; Rattus norvegicus, 250 μM, * = significance with respect to the control (AHEDP), read-out: No. of Cells, % of control ± E.S.) of the same compound?
Answer: 88.4 ± 1.5%

Question: And the “cellular toxicity, times less than APD” value (calvaria cells; compared with the analog APD)?
Answer: about 100 times less

Question: And the “effect on the cellular behavior” value (calvaria cells; concentrations lower than 250 μM)?
Answer: no negative effect is noted on the cellular behavior

Question: What about the “density of the bone” value (bone reabsorption; 0.01 mg P/kg, subcutaneous, seven days) of the same compound?
Answer: no effect on the density of the bone

Question: And the “inhibition of the bone reabsorption” value (bone reabsorption; 0.1 mg and particularly 1 mg P/kg)?
Answer: a clear inhibition of the bone reabsorption

Question: And the “density of the metaphyses” value (bone reabsorption; 0.1 mg and particularly 1 mg P/kg, subcutaneous, seven days)?
Answer: an increase in the density of the metaphyses

Question: What about the “influence on the body weight” value (bone reabsorption; 0.01, 0.1, 1.0 mg P/kg, subcutaneous, seven days) of the same compound?
Answer: No treatment has shown any influence on the body weight

Question: What about the “influence on the body weight” value (bone reabsorption; 10 mg P/kg, subcutaneous, seven days) of the same compound?
Answer: except in the dose of 10 mg P/kg, which obviously has no significant value

Question: What about the “inhibition of the bone reabsorption, in words and in comparison with other well-known diphosphonates” value (bone reabsorption; rat, in vivo) of the same compound?
Answer: powerful inhibitor of the bone reabsorption in a degree superior or similar to that of other well-known diphosphonates

Question: And the LD50 ([3]; ip, I.p.)?
Answer: 650 mg/kg

Question: What about the LD50 ([3]; iv, I.v.) of the same compound?
Answer: 85 mg/kg

Question: And the LD50 ([3]; po, OS (orally))?
Answer: > 2000 mg/kg

Question: And the “degree of toxicity (in words)” value (Swiss mice; every route of administration)?
Answer: low degree of toxicity in every route of administration

Question: And the “tolerance in comparison with the analog ADP” value (Swiss mice; mouse, in vivo)?
Answer: superior tolerance

Question: And the “plasmatic PGE2” value ([5]; 10 mg daily, one individual with Paget's disease)?
Answer: has not caused any change in this parameter

Question: And the “osteolysis and plasmatic alkaline phosphatase (both parameters)” value ([5]; 40 mg daily, one individual)?
Answer: a reduction of both parameters

Question: What about the alkaline phosphatasemia ([5]; 40 mg daily, one individual (Paget's disease in active phase)) of the same compound?
Answer: clear and rapid decrease of the alkaline phosphatasemia levels

Question: And the “urinary excretion of inorganic calcium and inorganic phosphates” value ([5]; 5-10 mg daily)?
Answer: have not modified to a significant degree

Question: And the “alkaline phosphatasemia / indexes of osteoblastic activity” value ([5]; 5-10-20 mg daily)?
Answer: have not been modified; also recorded: have not caused significant modifications in the plasmatic alkaline phosphatase

Question: And the osteolysis ([5]; 5-10-20 mg daily)?
Answer: blocking osteolysis

Question: And the “indexes of parathyroid activity (plasmatic immunoreactive PTH, cyclic nephrogenic AMP)” value ([5]; 5-10-20-40 mg daily)?
Answer: have not caused significant modification changes in the indexes of parathyroid activity

Question: What about the “plasmatic PGE2” value ([5]; 20-40 mg daily, three individuals with Paget's disease and high prior levels) of the same compound?
Answer: substantial and rapid decrease in the plasmatic PGE2 in all three individuals

Question: What about the “urinary excretion of inorganic calcium and inorganic phosphates” value ([5]; 20-40 mg daily, obvious particularly in phosphaturia) of the same compound?
Answer: significant increases of these two parameters

Question: What about the “urinary excretion of hydroxyproline” value ([5]; all the individuals treated) of the same compound?
Answer: reduced to a significant extent in all the individuals treated; also recorded: prompt and progressive reduction of the urinary excretion of hydroxyproline

Question: And the “calcium and phosphate levels of the plasma” value ([5]; every dosage used)?
Answer: has not caused variations worth mentioning

Question: What about the hyperphosphatemia ([5]; human, in vivo) of the same compound?
Answer: phases of hyperphosphatemia have not been observed

Question: And the calcemia ([5]; very short periods of some treatments)?
Answer: a low degree of calciemic contents have been noted

Question: And the “hydroxyprolinuria, dependence on dosage” value ([5]; with respect to the values prior to treatment)?
Answer: so much greater with respect to the values prior to treatment, the higher the dosage

Question: What about the tolerability ([6]; 5-40 mg daily intravenous, 15-30 days) of the same compound?
Answer: well tolerated; also recorded: tolerated in all cases

Question: What about the “variations in the parameters of tolerability” value ([6]; hemochromocytometric examination, proteinemia, glycemia, azotemia, creatininemia, transaminasemia, immunoglobulin) of the same compound?
Answer: has not caused significant variations in the parameters of tolerability

Question: What about the “increase of the body temperature or variation in the hematic crasia” value ([6]; human, in vivo) of the same compound?
Answer: in none of the individuals treated, there has been observed an increase of the body temperature or any variation in the hematic crasia

Question: And the “modifications of the hematic crasia and hepatic and renal functions” value ([6]; human, in vivo)?
Answer: nor have substantial modifications of the hematic crasia and hepatic and renal functions been noted

Question: And the side effects ([6]; human, in vivo)?
Answer: no side effects of any significance have been noted; also recorded: no undesirable side effects have been noted

Question: What about the “solubility in HCl” value (Solubility; HCl of average concentration) of the same compound?
Answer: dissolves in HCl of average concentration

Question: And the solubility in water (Solubility; water)?
Answer: little soluble in water

Question: What about the “solubility with NaOH” value (Solubility; water with addition of one equivalent of NaOH) of the same compound?
Answer: dissolves completely by addition of one equivalent of NaOH

Question: Which LD50 ([3]; ip, I.p.) does the source give for `CC(O)(P(=O)(O)O)P(=O)(O)O` [EHDP, Ethane-1-hydroxy-1,1-diphosphonic acid disodium salt] here?
Answer: 250 mg/kg

Question: What about the LD50 ([3]; po, OS (orally)) of the same compound?
Answer: 2000 mg/kg

Question: What about the LD50 (Toxicity (DL50) in rats) of the same compound?
Answer: 35 mg/kg
